Measured values published in US20210023232A1, “COMBINATION OF POLYETHYLENE GLYCOL AND RAPAMYCIN AND USE THEREOF” (JENKEM TECHNOLOGY CO., LTD. (TIANJIN), priority 2018, published 2021).

Test system: KLH antibody
Assay: Influence on keyhole limpet hemoeyanin (KLH) antibody level in immunized mice, serum ELISA potency assay
Format: in vivo, mouse
Settings: for KLH antibody ELISA OD value, data obtained after the third immunization (1: 1K) / KLH antibody ELISA OD value, data obtained after the fourth immunization (1: 1K) / KLH antibody ELISA OD value, data obtained after the third immunization (1: 3K) / KLH antibody ELISA OD value, data obtained after the fourth immunization (1: 3K): Balb/c mice immunized with KLH, test substance given on day 0 and day 7, x ± sd; for KLH antibody ELISA OD value, data obtained after the third immunization (1: 1K) / KLH antibody ELISA OD value, data obtained after the fourth immunization (1: 1K): serum dilution 1:1K; for KLH antibody ELISA OD value, data obtained after the third immunization (1: 1K) / KLH antibody ELISA OD value, data obtained after the third immunization (1: 3K): tail blood day 28-29; for KLH antibody ELISA OD value, data obtained after the fourth immunization (1: 1K) / KLH antibody ELISA OD value, data obtained after the fourth immunization (1: 3K): tail blood day 40-41; for KLH antibody ELISA OD value, data obtained after the third immunization (1: 3K) / KLH antibody ELISA OD value, data obtained after the fourth immunization (1: 3K): serum dilution 1:3K
Protocol: 2.4.1. Antigenic Information: Immunogen: KLH; Tested Substance: KLH
Primary immunization: On the first day, 100 ug antigen (immunogen) and Freund's complete adjuvant in the same volume were formed into a water-in-oil compound by means of mutual injection with a syringe, and then the compound was given to each of 18 mice by subcutaneous multi-point injection.
Second immunization: On the 14th day, 100 ug antigen (immunogen) and Freund's incomplete adjuvant in the same volume were formed into a water-in-oil compound by means of mutual injection with a syringe, and then the compound was given to each of 18 mice by subcutaneous multi-point injection.
Third immunization: On the 24th day, 100 ug antigen (immunogen) and Freund's incomplete adjuvant in the same volume were formed into a water-in-oil compound by means of mutual injection with a syringe, and then the compound was given to each of 18 mice by subcutaneous multi-point injection.
Test of tail blood: On the 28th-29th day, about 20 ul tail blood was collected from the tail vein, followed by 30 min RT and 5 min 5000 rpm centrifugation; then haemocyte precipitate was removed; and serum was taken for Elisa potency assay.
Fourth immunization: On the 34th day, 100 ug antigen (immunogen) and Freund's incomplete adjuvant in the same volume were formed into a water-in-oil compound by means of mutual injection with a syringe, and then the compound was given to each of 18 mice by subcutaneous multi-point injection.
Group G2 (Group IV): immunization was performed with reference to group G1; moreover, […] JK1208R (prepared in Example 1) was given by intravenous injection on the 0th day and 7th day, respectively.
Group G2 (Group IV): immunization was performed with reference to group G1; moreover, 52 μg rapamycin was given by oral administration on the 0th day and 7th day, respectively.
Test of tail blood: On the 40th-41st day, about 20 ul tail blood was collected from the tail vein, followed by 30 min RT and 5 min 5000 rpm centrifugation; then haemocyte precipitate was removed; and serum was taken for ELISA potency assay.
Coating: 10 ug antigen (tested substance) and 10 ml coating buffer (1.6 g […]+2.92 g NaHCO3+100 ml deionized water) were mixed; the solution was applied to the Elisa microplate, 100 ul per pore; the microplate was incubated for 2 h at 37° C. or kept still overnight at 4° C.
Blocking: The antigen coating buffer was sucked and removed from the coated microplate; a blocking buffer (5% dried skimmed milk and coating buffer) was directly added, 150 ul per pore; the microplate was treated for 2 h at 37° C., followed by three times of washing with de-ionized water; then the microplate was provisionally stored at 4° C.
Assay: serum and 1×PBS was mixed at a ratio of 1:1000; 150 ul diluent was added into the first pore; 100 ul 1×PBS were respectively added into each of the 2nd-8th pores; 50 ul liquid was transferred from the first pore into the second pore, followed by suction blow for 10 times; then, 50 ul liquid was transferred into the third pore, followed by suction blow for 10 times; next, 50 ul liquid was transferred into the fourth pore, followed by suction blow for 10 times; the test was done in the similar way in turn until the 7th pore, 50 ul liquid was removed from the 7th pore; the […] pore was a negative control group; the microplate was incubated for 1 h at 37° C., followed by three times of washing with de-ionized water; then a second antibody (goat-anti-mouse IgG-HRP 1:10000 1×PBS) was added, 100 ul each pore; the microplate was incubated for 30 min at 37° C., followed by three times of washing with de-ionized water; a chromogenic solution was added (according to the instructions on the reagent box), 100 ul each pore; the microplate was incubated for 10 min at 37° C. and then ended (2M sulphuric acid, 30 ul per pore). The OD value was tested with the microplate reader.

CO[C@H]1C[C@@H]2CC[C@@H](C)[C@@](O)(O2)C(=O)C(=O)N2CCCC[C@H]2C(=O)O[C@H]([C@H](C)C[C@@H]2CC[C@@H](O)[C@H](OC)C2)CC(=O)[C@H](C)/C=C(\C)[C@@H](O)[C@@H](OC)C(=O)[C@H](C)C[C@H](C)/C=C/C=C/C=C/1C [rapamycin]
KLH antibody ELISA OD value, data obtained after the third immunization (1: 1K): 1.77 ± 0.33
KLH antibody ELISA OD value, data obtained after the fourth immunization (1: 1K): 2.56 ± 0.11
KLH antibody ELISA OD value, data obtained after the third immunization (1: 3K): 1.49 ± 0.38
KLH antibody ELISA OD value, data obtained after the fourth immunization (1: 3K): 2.40 ± 0.24

monomethoxy polyethylene glycol-glutamic dipeptide-rapamycin [JK1208R]
KLH antibody ELISA OD value, data obtained after the third immunization (1: 1K): 1.33 ± 0.24
KLH antibody ELISA OD value, data obtained after the fourth immunization (1: 1K): 1.85 ± 0.32
KLH antibody ELISA OD value, data obtained after the third immunization (1: 3K): 0.86 ± 0.20
KLH antibody ELISA OD value, data obtained after the fourth immunization (1: 3K): 1.54 ± 0.31
Effect on generation of the KLH antibody (after the fourth immunization): could remarkably resist the generation of the KLH antibody
Statistical difference from immune model group after the fourth immunization (at 1:1K and 1:3K): show remarkably difference
Statistical difference from immune model group after the third immunization (at 1:3K): show remarkably difference
